Reference: patent publication US20140044655A1, “NOVEL ACTIVATOR PEPTIDES FOR SYNTHESIZING EXTRACELLULAR MATRIX PROTEINS, AND COSMETIC COMPOSITIONS INCLUDING SAME” (ISP INVESTMENTS INC., priority 2011, published 2014)
Where no end group is shown, it is not given here.

Experiments:
Type in all cases: cell-based
pro-collagen [1] = experiment: Specific labeling of pro-collagen in human fibroblast cultures (epifluorescence); settings: human dermal fibroblasts; peptide 0.5%, 1% and/or 3% (stock solution 40 mg/kg); 24, 48 and/or 72 hours; vs control
Protocol: (§1) The objective of this study is to determine the influence of the peptides SEQ ID NO: 4 and NO: 5 and the peptide SEQ ID NO: 4 on the expression of the following extracellular matrix proteins: collagen I, collagen III, pro-collagen, fibronectin and hyaluronic acid in human fibroblasts. For this, specific labelings were performed on normal human fibroblast cultures obtained from the dermis.
(§2) Human fibroblasts in culture are treated with the peptide SEQ ID NO: 5 or the peptide SEQ ID NO: 4 at a final concentration of 0.5%, 1% and/or 3% (based on a stock solution at 40 mg/kg), for 24, 48 and/or 72 hours. The cells are then washed, fixed with cold methanol for 4 minutes at 4° C. (for the collagen I, collagen III and hyaluronic acid labelings) or with formaldehyde at 3.7% for 10 minutes at room temperature (for the pro-collagen and fibronectin labelings). The cells are incubated in the presence of a specific rabbit collagen I polyclonal antibody (Rockland, Ref: 600-401-103-0.5), a specific rabbit collagen III polyclonal antibody (Rockland, Ref: 600-401-105-0.5), a specific rat pro-collagen polyclonal antibody (Millipore, Ref: MAB1912), a specific rabbit fibronectin polyclonal antibody (Sigma, Ref: F-3648), then an anti-rabbit secondary antibody coupled with a fluorochrome (Invitrogen, Ref: A21206) or anti-rat coupled with a fluorochrome (Invitrogen, A11006). […]

collagen III [2] = experiment: Specific labeling of collagen III in human fibroblast cultures (epifluorescence); settings: human dermal fibroblasts; peptide 0.5%, 1% and/or 3% (stock solution 40 mg/kg); 24, 48 and/or 72 hours; vs control
Protocol: as §1, §2

hyaluronic acid [3] = experiment: Hyaluronic acid labeling in human skin samples cultivated ex vivo; settings: topical 0.5%, 1% or 3% (stock solution 40 mg/kg), 24, 48 and/or 72 hours
Protocol: (§3) The objective of this study is to determine the influence of the peptide SEQ ID NO: 5 on the expression of the following extracellular matrix proteins: collagen I, collagen III, pro-collagen, fibronectin and hyaluronic acid in the human skin. For this, specific labelings were performed on human skin samples cultivated ex vivo.
(§4) Human skin samples are placed in culture at the air/liquid interface. The peptide SEQ ID NO: 5 is applied topically on the samples at final concentrations of 0.5%, 1% or 3%, (using a stock solution at 40 mg/kg) then the samples are incubated for 24, 48 and/or 72 hours at 37° C.
(§5) These skin samples are then fixed with formaldehyde then embedded in paraffin or fixed and embedded in OCT then frozen at −20° C. Sections with a thickness of 4 μm are then produced (6 μm for cold sections).
(§6) The labelings of the collagen I and the collagen III, on the samples embedded in paraffin, are performed after unmasking specific sites. The immunolabelings are performed using a specific rabbit collagen I polyclonal antibody (Rockland, Ref: 600-401-103-0.5), a specific rabbit collagen III polyclonal antibody (Rockland, Ref: 600-401-105-0.5), then an anti-rabbit secondary antibody coupled with a fluorochrome (Invitrogen, Ref: A21206). […]

collagen I [4] = experiment: Specific labeling of collagen I in human fibroblast cultures (epifluorescence); settings: human dermal fibroblasts; peptide 0.5%, 1% and/or 3% (stock solution 40 mg/kg); 24, 48 and/or 72 hours; vs control
Protocol: as §1, §2

collagen I [5] = experiment: Collagen I immunolabeling in human skin samples cultivated ex vivo; settings: topical 0.5%, 1% or 3% (stock solution 40 mg/kg), 24, 48 and/or 72 hours
Protocol: as §3, §4, §5, §6

P16 = experiment: Expression of senescence marker P16 in human fibroblasts (immunolabeling); settings: 0.5% and 1% (stock solution 40 mg/kg), 48 hours
Protocol: The objective of this study is to determine the influence of the peptide SEQ ID NO: 5 on the expression of P16, a protein of which the expression in the skin increases with age. P16 is a protein involved in the negative regulation of the cellular cycle, which has been described as a reliable marker of cellular senescence (Brookes S. et al. Experimental Cell Research 298, 2004).
Human fibroblasts in culture are treated with the peptide SEQ ID NO: 5 at final concentrations of 0.5% and 1% (using a stock solution at 40 mg/kg) for 48 hours. The cells are prepared according to the Shandon Cytoblock® Cell preparation system kit (Thermo Scientific, Ref: 7401150).
The cells are then fixed with formaldehyde then embedded in paraffin. Sections of 4 μm are then produced. The labeling of p16 on the cells embedded in paraffin is performed after unmasking the specific sites. The immunolabelings are performed using a specific mouse p16 polyclonal antibody (Santa-Cruz, Ref: sc-81157), then an anti-mouse secondary antibody coupled with a fluorochrome (Invitrogen, Ref: A21202). The cells are then examined under the epifluorescence microscope (Nikon Eclipse E600 microscope).

hyaluronic acid [6] = experiment: Specific labeling of hyaluronic acid in human fibroblast cultures (epifluorescence); settings: human dermal fibroblasts; peptide 0.5%, 1% and/or 3% (stock solution 40 mg/kg); 24, 48 and/or 72 hours; vs control
Protocol: as §1, §2

[7] = system: senescent fibroblasts (β-galactosidase activity); experiment: Reversal of senescence induced by FOXO3a siRNA in human fibroblasts (β-galactosidase, X-Gal staining); settings: human fibroblasts treated with FOXO3a siRNA 25 nM; peptide 1% (stock solution 40 mg/kg); 48 hours
Source text: The objective of this study is to determine the influence of the peptide SEQ ID NO: 5 on senescent fibroblasts, of which the senescence has been induced by the extinction of the FOXO3a gene. These cells overexpress beta-galactosidase, in relation to their senescent state.
FOXO3a is a Forkhead transcription factor involved in cell longevity. In the skin, the negative regulation of FOXO3a accelerates the senescence of normal human fibroblasts (Hyun Kyoung K. et al. J. of Gerontol., 2005, vol. 60A n° 1, pages 4-9). This property was used to advantage to induce senescence in human fibroblasts by blocking FOXO3a expression by a specific interfering RNA (siRNA).
Human fibroblasts in culture are rendered senescent by treatment with a specific siRNA of FOXO3a at a final concentration of 25 nM using the Lipofectamine™ RNAiMAX (Invitrogen, Ref: 13778-075) transfection technique. Untreated controls are produced. The fibroblasts are treated in parallel by the peptide SEQ ID NO: 5 at a final concentration of 1% (using a stock solution at 40 mg/kg) for 48 hours.
The cells are rinsed and fixed in a fixation buffer (0.2% glutaraldehyde, 2% formaldehyde). The cells are then incubated at 37° C. without CO2 for 24 hours with an X-Gal solution at 1 mg/mL in 40 mM of citric acid/phosphate (pH 6), 5 mM K3FeCN6, 5 mM K4FeCN6, 150 mM NaCl and 2 mM MgCl2. […]

[8] = system: Collagen I messenger RNAs; experiment: Expression of collagen I messenger RNAs by real-time PCR in human fibroblasts; settings: 0.5% and 1% (stock solution 40 mg/kg), 24, 48 and 72 hours, comparative Ct method, 18S control
Protocol: The objective of this study is to determine the influence of the peptide SEQ ID NO: 5 on the expression of collagen I messenger RNAs in the human fibroblasts. For this, the expression of collagen I was studied by real-time PCR.
Human fibroblasts in culture are treated with the peptide SEQ ID NO: 5 at final concentrations of 0.5% and 1% (using a stock solution at 40 mg/kg) for 24, 48 and 72 hours. The total RNAs are extracted using an extraction kit (QIAGEN), then reverse transcribed with a specific kit containing RNase inhibitors (Applied Biosystems). A real-time PCR is performed in a thermocycler using a specific Collagen I TaqMan Gene Expression Assay (Applied Biosystem, […]) and a specific 18S TaqMan Gene Expression Assay used as an endogenous control (Applied Biosystem, […]). The relative quantification of the expression of the Collagen I messenger RNAs is performed by the comparative Ct method (the Ct, the threshold cycle, is the intersection between the amplification curve and the threshold line).

pro-collagen [9] = experiment: Pro-collagen immunolabeling in human skin samples cultivated ex vivo; settings: topical 0.5%, 1% or 3% (stock solution 40 mg/kg), 24, 48 and/or 72 hours
Protocol: as §3, §4, §5
The immunolabeling of the pro-collagen, on the samples embedded in OCT, is performed after fixing for 10 minutes with cold acetone. The immunolabeling is performed using a specific rat pro-collagen polyclonal antibody (Millipore, Ref: MAB 1912) then an anti-rat secondary antibody, coupled with a fluorescent marker (Invitrogen, A11006).
The cells are then examined under the epifluorescence microscope (Nikon Eclipse E600 microscope).

fibronectin = experiment: Specific labeling of fibronectin in human fibroblast cultures (epifluorescence); settings: human dermal fibroblasts; peptide 0.5%, 1% and/or 3% (stock solution 40 mg/kg); 24, 48 and/or 72 hours; vs control
Protocol: as §1, §2

collagen III [10] = experiment: Collagen III immunolabeling in human skin samples cultivated ex vivo; settings: topical 0.5%, 1% or 3% (stock solution 40 mg/kg), 24, 48 and/or 72 hours
Protocol: as §3, §4, §5, §6

Substance | expression of pro-collagen (pro-collagen [1]) | expression of collagen III (collagen III [2]) | expression of hyaluronic acid in the human dermis (hyaluronic acid [3]; dermis) | expression of hyaluronic acid in the human epidermis (hyaluronic acid [3]; epidermis) | expression of collagen I (collagen I [4]) | expression of collagen I in the dermis (collagen I [5]) | p16 immunolabeling, nuclear fluorescence (expression of the p16 senescence marker) (P16) | expression of hyaluronic acid (hyaluronic acid [6]) | β-galactosidase activity (number of cells stained blue) [7] | expression of Collagen I messenger RNAs [8] | expression of pro-collagen in the dermis (pro-collagen [9]) | expression of fibronectin (fibronectin) | expression of collagen III in the dermis (collagen III [10])
Gly-Pro-Ala-Gly-Pro-NH2 (GPAGP-NH2) [SEQ ID NO: 5] | stimulate the expression | stimulate the expression | stimulates the expression | stimulates the expression | stimulate the expression | stimulates the expression | less intense nuclear fluorescence | stimulate the expression | decrease in the β-galactosidase activity | stimulates the expression | stimulates the expression | stimulate the expression | stimulates the expression
Gly-Pro-Ala-Gly-Pro (GPAGP) [SEQ ID NO: 4] | stimulate the expression | stimulate the expression | – | – | stimulate the expression | – | – | stimulate the expression | – | – | – | stimulate the expression | –
